# Reference: publication PMC3525482 (Journal of inorganic biochemistry, 2012)
# Where two headings read alike, the source gives them in different places.
# Key:
# FIH [1] = conditions: cited from earlier work
# Recombinant human PHD2 = Recombinant human PHD2 (Homo sapiens, UniProt Q9GZT9); assay: PHD2 dose-response activity assay; type: biochemical; conditions: sub-saturating αKG
# Recombinant human FIH-1 = Recombinant human FIH-1 (Homo sapiens, UniProt Q9NWT6); assay: FIH dose-response activity assay; type: biochemical
# FIH [2] = conditions: read-out: KM (Michaelis constant for αKG), FIH; cited from earlier work
# Chain of Recombinant human FIH-1 (Q9NWT6 whole entry): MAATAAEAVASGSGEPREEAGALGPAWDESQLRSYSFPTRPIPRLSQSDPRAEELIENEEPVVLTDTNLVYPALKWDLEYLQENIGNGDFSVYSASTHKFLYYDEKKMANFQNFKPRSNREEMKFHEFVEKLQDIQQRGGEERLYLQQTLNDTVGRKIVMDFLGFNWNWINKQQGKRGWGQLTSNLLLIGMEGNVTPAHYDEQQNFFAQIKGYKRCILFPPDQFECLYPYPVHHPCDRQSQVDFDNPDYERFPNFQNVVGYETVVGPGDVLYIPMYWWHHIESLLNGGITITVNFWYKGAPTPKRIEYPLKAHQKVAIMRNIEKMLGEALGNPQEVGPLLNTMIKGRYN
# Chain of Recombinant human PHD2 (Q9GZT9 177-426): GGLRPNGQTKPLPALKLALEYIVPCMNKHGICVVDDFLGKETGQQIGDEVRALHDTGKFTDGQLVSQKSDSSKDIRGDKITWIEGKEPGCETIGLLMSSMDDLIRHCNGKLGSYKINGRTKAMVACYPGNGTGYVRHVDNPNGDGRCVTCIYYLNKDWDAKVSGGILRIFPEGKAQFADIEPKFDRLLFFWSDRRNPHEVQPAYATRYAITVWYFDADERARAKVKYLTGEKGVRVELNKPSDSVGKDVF
Molecule,IC50 (Recombinant human FIH-1) [µM],further results
N-oxalyl-D-phenylalanine,,Ki (FIH [1]): 90 µM
"Cc1ccc(C#N)c(=O)[nH]1 [Compound 1, 3-Cyano-6-methyl-2(H) pyridinone]",,"inhibition toward PHD2 (Recombinant human PHD2): no inhibition; inhibition toward FIH (Recombinant human FIH-1; dose response, sub-saturating αKG): no inhibition; IC50 (Recombinant human FIH-1; read-out: FIH IC50, 10 µM αKG, 0.5 µM FIH, 50 mM HEPES pH 7.50, 37.0 °C): > 1000 µM"
"CC(C)(C)c1ccc(O)c(O)c1 [Compound 10, 4-tert-Butylcatechol]",120,
"O=C(O)CCC(=O)C(=O)O [αKG, alpha-ketoglutarate]",,Km (FIH [2]): 22 ± 6 µM
"Cc1occc(=O)c1O [Compound 6, 3-Hydroxy-2-methyl-4-pyrone]",70,
"O=C(O)c1cc(=O)c(O)co1 [Compound 5, 5-Hydroxy-4-oxo-4H-pyran-2-carboxylic acid]",50,
"O=[N+]([O-])c1ccc(O)c(O)c1 [Compound 8, 4-Nitrocatechol]",10,
"Cc1ccc(O)c(O)c1 [Compound 9, 4-Methylcatechol]",50,
"Oc1cccnc1O [Compound 3, 2,3-Dihydroxypyridine]",75,
"O=c1cc(CO)occ1O [Compound 4, 5-Hydroxy-2-hydroxymethyl-4-pyrone]",170,
"Cc1c(O)c(=O)ccn1C [Compound 7, 3-Hydroxy-1,2-dimethyl-4(1H)-pyridinone]",30,
